Legend:
rat NaP2b (SLC34A2) = target: T1, rat NaP2b (SLC34A2) (Rattus norvegicus, UniProt Q9JJ09); assay: Inhibition of NaP2b-mediated Pi (33P) uptake in transfected HEK293 cells, rat NaP2b; assay type: cell-based; details: 33P Pi uptake, 0.1 mM phosphate, value given as pIC50 range
T1 construct: host or cells: HEK293
T1 sequence (Q9JJ09 1-695): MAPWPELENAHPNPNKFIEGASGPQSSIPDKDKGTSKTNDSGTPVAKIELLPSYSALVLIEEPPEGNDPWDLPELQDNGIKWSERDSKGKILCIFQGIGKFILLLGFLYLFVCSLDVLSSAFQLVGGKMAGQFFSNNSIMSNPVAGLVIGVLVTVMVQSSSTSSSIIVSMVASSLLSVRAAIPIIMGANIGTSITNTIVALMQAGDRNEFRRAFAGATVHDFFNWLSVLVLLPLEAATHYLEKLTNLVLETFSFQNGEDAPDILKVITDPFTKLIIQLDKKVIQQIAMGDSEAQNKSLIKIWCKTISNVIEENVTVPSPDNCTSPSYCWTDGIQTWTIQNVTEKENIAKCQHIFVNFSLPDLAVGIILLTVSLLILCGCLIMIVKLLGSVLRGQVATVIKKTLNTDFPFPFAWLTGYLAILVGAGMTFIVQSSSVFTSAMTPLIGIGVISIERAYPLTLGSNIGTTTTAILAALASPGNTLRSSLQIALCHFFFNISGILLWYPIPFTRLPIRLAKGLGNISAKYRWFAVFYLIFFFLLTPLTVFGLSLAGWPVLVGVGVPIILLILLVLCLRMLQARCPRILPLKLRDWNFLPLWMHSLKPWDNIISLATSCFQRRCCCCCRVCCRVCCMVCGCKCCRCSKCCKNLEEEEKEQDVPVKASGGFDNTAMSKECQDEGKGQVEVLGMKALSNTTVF
Summary of the method: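 HEK293 cells were transiently transfected with NaP2b cDNA using Lipofectamine and grown near confluence. Compounds were tested at twelve concentrations from 0.1 nM to 30 uM in duplicate, and 33P-phosphate uptake was counted by scintillation after lysis. Results are expressed as pIC50.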

human NaP2b (SLC34A2) = target: T2, human NaP2b (SLC34A2) (Homo sapiens, UniProt O95436); assay: Inhibition of NaP2b-mediated Pi (33P) uptake in transfected HEK293 cells, human NaP2b; assay type: cell-based; details: for IC50: read-out: pIC50 range for human NaP2b (converted)
T2 construct: host or cells: HEK293
T2 sequence (O95436 1-690): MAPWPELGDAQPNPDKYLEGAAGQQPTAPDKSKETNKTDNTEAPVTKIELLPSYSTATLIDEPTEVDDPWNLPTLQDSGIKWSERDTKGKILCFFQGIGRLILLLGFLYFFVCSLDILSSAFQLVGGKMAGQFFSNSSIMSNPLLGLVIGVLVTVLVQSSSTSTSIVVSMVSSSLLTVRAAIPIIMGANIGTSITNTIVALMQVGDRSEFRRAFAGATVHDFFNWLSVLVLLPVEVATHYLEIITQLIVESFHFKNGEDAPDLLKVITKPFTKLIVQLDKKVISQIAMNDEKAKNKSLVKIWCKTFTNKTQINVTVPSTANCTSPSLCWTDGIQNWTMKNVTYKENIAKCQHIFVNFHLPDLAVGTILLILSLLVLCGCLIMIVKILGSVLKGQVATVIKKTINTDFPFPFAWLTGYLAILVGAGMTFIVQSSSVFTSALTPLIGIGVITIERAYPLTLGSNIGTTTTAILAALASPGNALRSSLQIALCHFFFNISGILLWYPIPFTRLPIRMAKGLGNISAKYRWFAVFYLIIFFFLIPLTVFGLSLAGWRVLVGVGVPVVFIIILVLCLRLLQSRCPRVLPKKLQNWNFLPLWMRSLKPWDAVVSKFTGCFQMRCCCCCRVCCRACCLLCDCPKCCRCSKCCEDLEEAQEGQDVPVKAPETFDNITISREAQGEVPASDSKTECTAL
Experimental: HEK293 cells were obtained from the American Type Culture collection and propagated per their instructions. Expression clones for rat and human NaP2b (SLC34A2) were obtained from Open Biosystems (Catalog numbers MRN1768-9510282, and MHS1010-99823026, respectively). The sequence of the human protein was mutated to insert a threonine after residue 37, and to introduce a N39D mutation.
The rate of phosphate (Pi) uptake into HEK293 cells was measured using a modification of the method described by Mohrmann et al. (Mohrmann, I., Mohrmann, M., Biber, J., and Murer, H. (1986) Am. J. Phys. 250(3 Pt 1):G323-30.) Transfected HEK293 cells were treated with a pharmacological agent to minimize endogenous PiT-mediated phosphate transport activity, such that the only remaining sodium-dependent phosphate transport activity is that which was bestowed by introduction of the NaP2b genes.
Cells were seeded into 96-well plates at 25,000 cells/well and cultured overnight. Lipofectamine 2000 (Invitrogen) was used to introduce the NaP2b cDNA, and the cells were allowed to approach confluence during a second overnight incubation. […] Cells were then overlayed with either choline uptake buffer or sodium uptake buffer (14 mM Tris, 137 mM sodium chloride, 5.4 mM KCl, 2.8 mM CaCl2, 1.2 mM MgSO4, 100 uM KH2PO4, PiT-silencing agent, 1 mg/mL Bovine Serum Albumin, pH 7.4) containing 6-9 uCi/mL ^33P orthophosphoric acid (Perkin Elmer) and test compound. Each compound was tested at twelve concentrations ranging from 0.1 nM to 30 uM. Assays were run in duplicate.
After incubation for 3-30 minutes at room temperature, assay mixtures were removed, and the cells were washed twice with ice cold stop solution (137 mM sodium chloride, 14 mM Tris, pH 7.4). Cells were lysed by addition of 20 μL 0.1% Tween 80 followed by 100 μL scintillation fluid, and counted using a TopCount (Perkin Elmer).
pIC50 (the negative log of the IC50) values of the test compounds were calculated using GraphPad Prism.

## O=C(O)CCSCc1cccc(C(=O)Nc2ccc(N3CCCCC3)cc2-c2cc(NCc3cccc(C(F)(F)F)c3)ncn2)c1 [Example 3.1, 3-((3-((4-(Piperidin-1-yl)-2-(6-((3-(trifluoromethyl)benzyl)amino)pyrimidin-4-yl)phenyl)carbamoyl)benzyl)thio)propanoic acid]
Rat NaP2b (SLC34A2)
  IC50: 1000 to 7940 nM
Human NaP2b (SLC34A2)
  IC50: 1000 to 7940 nM

## CN(CCN1CCN(C(=O)N(C)CCOCCOCCOCCC(=O)OC(C)(C)C)CC1)C(=O)c1cccc(C(=O)Nc2ccc(N3CCCCC3)cc2-c2cc(C(=O)N[C@H]3CCCc4ccccc43)ccn2)c1 [Example 229, tert-butyl 3-[2-(2-{2-[methyl(4-{2-[N-methyl-1-(3-{[4-(piperidin-1-yl)-2-(4-{[(1S)-1,2,3,4-tetrahydronaphthalen-1-yl]carbamoyl}pyridin-2-yl)phenyl]carbamoyl}phenyl)formamido]ethyl}piperazin-1-yl)carbonylamino]ethoxy}ethoxy)ethoxy]propanoate]
Rat NaP2b (SLC34A2)
  IC50: < 1000 nM
Human NaP2b (SLC34A2)
  IC50: < 1000 nM

## CN(Cc1cncn1C)C(=O)c1cccc(C(=O)Nc2ccc(N3CCCCC3)cc2-c2cc(C(=O)NCc3cccc(C(F)(F)F)c3)ccn2)c1 [Example 4.26]
Rat NaP2b (SLC34A2)
  IC50: 1000 to 7940 nM
Human NaP2b (SLC34A2)
  IC50: < 1000 nM

## CCN(CC)c1ccc(NC(=O)c2cccc(C(=O)N(C)CCN3CCN(C(=O)OCCOCCOCCOCCOCCOCCOCCOC)CC3)c2)c(-c2cc(C(=O)N[C@H]3CCCc4ccccc43)ccn2)c1 [Example 230, (S)-2,5,8,11,14,17,20-heptaoxadocosan-22-yl 4-(2-(3-(4-(diethylamino)-2-(4-(1,2,3,4-tetrahydronaphthalen-1-ylcarbamoyl)pyridin-2-yl)phenylcarbamoyl)-N-methylbenzamido)ethyl)piperazine-1-carboxylate]
Rat NaP2b (SLC34A2)
  IC50: 1000 to 7940 nM
Human NaP2b (SLC34A2)
  IC50: 1000 to 7940 nM

## CN(CCO)C(=O)c1cccc(C(=O)Nc2ccc(N3CCCCC3)cc2-c2cc(C(=O)NC3CCCc4ccccc43)ccn2)c1 (stereo in doubt) [Example 115, (S)—N^1-(2-hydroxyethyl)-N′-methyl-N^3-(4-(piperidin]-yl)-2-(4-((1,2,3,4-tetrahydronaphthalen-1-yl)carbamoyl)pyridin-2-yl)phenyl)isophthalamide]
Rat NaP2b (SLC34A2)
  IC50: < 1000 nM
Human NaP2b (SLC34A2)
  IC50: < 1000 nM

## O=C(CCSCc1cccc(C(=O)Nc2ccc(N3CCCCC3)cc2-c2cc(C(=O)NCc3cccc(C(F)(F)F)c3)ccn2)c1)NCCOCCOCCOCCOCCOCCOCCOCCO [Example 4.19, 2-(2-(3-(29-Hydroxy-5-oxo-9,12,15,18,21,24,27-heptaoxa-2-thia-6-azanonacosyl)benzamido)-5-(piperidin-1-yl)phenyl)-N-(3-(trifluoromethyl)benzyl)isonicotinamide]
Rat NaP2b (SLC34A2)
  IC50: 1000 to 7940 nM
Human NaP2b (SLC34A2)
  IC50: 1000 to 7940 nM

## COCCOCCOCCOCCOCCOCCOCCN(C)C(=O)CCOCCOCCOCCOCCCc1cccc(C(=O)Nc2ccc(N3CCCCC3)cc2-c2cc(C(=O)NCc3cccc(C(F)(F)F)c3)ccn2)c1 [Example 276]
Rat NaP2b (SLC34A2)
  IC50: 1000 to 7940 nM
Human NaP2b (SLC34A2)
  IC50: 1000 to 7940 nM

## CCN(CC)c1ccc(NC(=O)c2cccc(CCCOCCOCCOCCOCCNS(=O)(=O)c3cccc(C(=O)O)c3)c2)c(-c2cc(C(=O)NCc3cccc(C(F)(F)F)c3)ccn2)c1 [Example 289, 3-(N-(15-(3-(4-(diethylamino)-2-(4-(3-(trifluoromethyl)benzylcarbamoyl)pyridin-2-yl)phenylcarbamoyl)phenyl)-3,6,9,12-tetraoxapentadecyl)sulfamoyl)benzoic acid]
Rat NaP2b (SLC34A2)
  IC50: 1000 to 7940 nM
Human NaP2b (SLC34A2)
  IC50: 1000 to 7940 nM

## CCN(CC)c1ccc(NC(=O)c2cccc(CCCOCCOCCOCCOCCC(=O)N(CCO)CCO)c2)c(-c2cc(C(=O)N[C@H]3CCCc4ccccc43)ccn2)c1 [Example 282]
Rat NaP2b (SLC34A2)
  IC50: < 1000 nM
Human NaP2b (SLC34A2)
  IC50: 1000 to 7940 nM

## CCN(CC)c1ccc(NC(=O)c2cccc(C(=O)N(C)CCN3CCN(C(=O)N(C)CCOCCOCCOCCC(=O)OC(C)(C)C)CC3)c2)c(-c2cc(C(=O)N[C@H]3CCCc4ccccc43)ccn2)c1 [Example 212, tert-butyl 3-[2-(2-{2-[(4-{2-[1-(3-{[4-(diethylamino)-2-(4-{[(1S)-1,2,3,4-tetrahydronaphthalen-1-yl]carbamoyl}pyridin-2-yl)phenyl]carbamoyl}phenyl)-N-methylformamido]ethyl}piperazin-1-yl)carbonyl(methyl)amino]ethoxy}ethoxy)ethoxy]propanoate]
Rat NaP2b (SLC34A2)
  IC50: < 1000 nM
Human NaP2b (SLC34A2)
  IC50: < 1000 nM

## CCN(CC)c1ccc(NC(=O)c2cccc(C(=O)N(C)CCN3CCN(C(=O)COCCOCCOCCOCCOCCOCCOCCOC)CC3)c2)c(-c2cc(C(=O)N[C@H]3CCCc4ccccc43)ccn2)c1 [Example 227, (S)—N1-(2-(4-2,5,8,11,14,17,20,23-octaoxapentacosanepiperazin-1-yl)ethyl)-N3-(4-(diethylamino)-2-(4-(1,2,3,4-tetrahydronaphthalen-1-ylcarbamoyl)pyridin-2-yl)phenyl)-N1-methylisophthalamide]
Rat NaP2b (SLC34A2)
  IC50: 1000 to 7940 nM
Human NaP2b (SLC34A2)
  IC50: 1000 to 7940 nM

## CCN(CC)c1ccc(NC(=O)c2cccc(CCCOCCOCCOCCOCCNC(=O)N(CCO)CCO)c2)c(-c2cc(C(=O)NCc3cccc(C(F)(F)F)c3)ccn2)c1 [Example 274, 2-(5-(diethylamino)-2-(3-(1-hydroxy-3-(2-hydroxyethyl)-4-oxo-8,11,14,17-tetraoxa-3,5-diazaicosan-20-yl)benzamido)phenyl)-N-(3-(trifluoromethyl)benzyl)isonicotinamide]
Rat NaP2b (SLC34A2)
  IC50: 1000 to 7940 nM
Human NaP2b (SLC34A2)
  IC50: 1000 to 7940 nM

## 16-(3-(4-(16-(3-(4-(diethylamino)-2-(4-(3-(trifluoromethyl)benzylcarbamoyl)pyridin-2-yl)phenylcarbamoyl)phenyl)-4,7,10,13-tetraoxahexadecane)piperazine-1-carbonyl)phenyl)-4,7,10,13-tetraoxahexadecan-1-oic acid [Example 293]
Rat NaP2b (SLC34A2)
  pIC50 range for rat Nap2b: 5.1-6.0
Human NaP2b (SLC34A2); 33P Pi uptake, transfected HEK293 cells, 0.1 mM phosphate, value given as pIC50 range
  pIC50 range for human NaP2b: 5.1-6.0

## CCN(CC)c1ccc(NC(=O)c2cccc(CCCOCCOCCOCCOCCOCCOCCC(=O)O)c2)c(-c2cc(C(=O)N[C@H]3CCCc4ccccc43)ccn2)c1 [Example 304, (S)-22-(3-(4-(diethylamino)-2-(4-(1,2,3,4-tetrahydronaphthalen-1-ylcarbamoyl)pyridin-2-yl)phenylcarbamoyl)phenyl)-4,7,10,13,16,19-hexaoxadocosan-1-oic acid]
Rat NaP2b (SLC34A2)
  IC50: < 1000 nM
Human NaP2b (SLC34A2)
  IC50: < 1000 nM

Source: patent US20140023611A1 (priority 2010, published 2014)
